From US20260174677A1, “METHODS OF TREATING INSULIN RESISTANCE AND ASSOCIATED DISORDERS” (The University of Melboune, priority 2022, published 2026)

Tested on: CSPG-ECM components (mixed CSPGs, aggrecan, chondroitin 4-sulfate)
Assay: CSPG-ECM binding assay with insulin-FITC in vitro
Protocol: To determine the interaction of insulin with CSPG-ECM components in vitro, flat-bottom 96-well plates were first coated with 10 μg/ml poly-L-lysine overnight, followed by a rinsing with water. A purified CSPGs mix containing neurocan, phosphacan, versican and aggrecan (CC117, Merck Millipore, MA), purified aggrecan ([…], Merck Millipore, MA) or purified chondroitin 4-sulfate ([…], Selleck Chemicals, TX), were coated onto the 96-well plates at a concentration of 10 μg/ml for 4 h at RT, followed by a rinse with water. Insulin-FITC was incubated on plates containing ECM at concentrating ranging from 5 ng/ml-1 mg/ml for 2 h at RT and protected from light. Control wells contained either no ECM, bovine serum albumin (10 μg/ml) or poly-L-lysine alone. Wells were washed 3 times with water and imaged at 495 nm using a SPECTROstar Nano Microplate Reader (BMG Labtech, Germany). To digest CSPG-ECM or to negate CSPG-ECM negative charge. wells were incubated with either chABC (0.5 U/ml) or poly-l-arginine (10 μg/ml, […], Merck Millipore, MA) for 1 h at 37° C. after the ECM coating, washed 3 times with water and then incubated with insulin-FITC.

## insulin-FITC: fluorescein isothiocyanate tagged insulin
2-hours incubation on coated plates
  binding of insulin-FITC to mixed CSPGs, aggrecan and C4S: specific dose-dependent binding

## poly-arginine
In the presence of poly-arginine
  insulin-ECM interactions (insulin-FITC with CSPG mix) in the presence of the agent: significantly reduced
